Data: PMC9007462 (Journal of Medicinal Chemistry, 2022)

What was measured:
Human ALDH1A3 = target: T1, Human ALDH1A3 (Homo sapiens, UniProt P47895); assay: ALDH1A3 inhibition, IC50, Ki and type of inhibition; assay type: biochemical; conditions: for IC50: 6 μM hexanal as substrate
T1 construct: made in house
T1 sequence (P47895 1-512): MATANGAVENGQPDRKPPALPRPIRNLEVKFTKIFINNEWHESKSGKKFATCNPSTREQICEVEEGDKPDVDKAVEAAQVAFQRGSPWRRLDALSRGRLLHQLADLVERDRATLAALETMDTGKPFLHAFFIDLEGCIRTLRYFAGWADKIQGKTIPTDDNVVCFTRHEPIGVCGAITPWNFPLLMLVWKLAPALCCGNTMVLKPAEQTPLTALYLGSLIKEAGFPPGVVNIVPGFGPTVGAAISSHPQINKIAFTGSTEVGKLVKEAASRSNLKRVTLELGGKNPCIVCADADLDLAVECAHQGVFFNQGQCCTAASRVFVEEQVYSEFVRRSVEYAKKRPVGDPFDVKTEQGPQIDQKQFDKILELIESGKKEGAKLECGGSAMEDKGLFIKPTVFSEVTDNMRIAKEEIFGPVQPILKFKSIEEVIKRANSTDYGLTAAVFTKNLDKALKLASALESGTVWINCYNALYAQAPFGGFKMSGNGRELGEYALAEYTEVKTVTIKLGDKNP

PC3 = assay: MTT chemosensitivity assay, PC3; assay type: cell-based, human; conditions: Homo sapiens, PC-3, 96 h exposure, ± SD, at least three independent experiments
LNCaP = assay: MTT chemosensitivity assay, LNCaP; assay type: cell-based, human; conditions: Homo sapiens, LNCaP, 96 h exposure, ± SD, at least three independent experiments
DU145 = assay: MTT chemosensitivity assay, DU145; assay type: cell-based, human; conditions: Homo sapiens, DU-145, 96 h exposure, ± SD, at least three independent experiments
[1] = system: patient-derived primary prostate tumor epithelial cells; assay: Alamar Blue cell viability of primary prostate epithelial cultures; assay type: cell-based, human; conditions: 72 h; for cell viability of primary prostate epithelial cultures, combination with docetaxel: 50 and 200 μM + 1 nM docetaxel; for cell viability of primary prostate epithelial cultures, single agent: 50 and 200 μM, four cancer samples and one BPH
Procedure: Primary cells cultured at early passage from human prostate tissue biopsies included one BPH sample H415/15–BPH/PSA 0.61 and four PCa samples H568/15 RM–Gl7(3 + 4)/PSA 8.5, H431/14 LM–Gl7(3 + 4)/PSA 14, H488/14 RM–Gl7(3 + 4)/PSA 12.6, and H517/15 RM–Gl7(3 + 4)/PSA 4.4. Primary cells were obtained with ethical consent (REC ref 07/H1304/121) at radical prostatectomy (cancer) and transurethral resection (BPH) and were seeded as previously described[37] in 96-well plates 5000 cells/well in 100 μL of SCM and incubated at 37 °C, 5% CO2 for 24 h. […] Cells were treated with 100 μL of ALDH inhibitors at concentrations of 50 and 200 μM as single treatment. Combination treatments included 100 μL of 50 μM ALDH inhibitor + 1 nM docetaxel and 100 μL of 200 μM ALDH inhibitor + 1 nM docetaxel. Cells were also treated with 100 μL of 1 nM docetaxel only. 1 nM docetaxel was chosen since it was the IC50 when other primary samples were analyzed in our laboratory. Control wells included blank (media only) and untreated cells (DMSO only). Each experiment was performed in triplicate, and cell seeding density was the same in all wells; therefore, changes in treated cells were compared to untreated DMSO control cells. Plates were returned to the incubator for a 72 h incubation before further processing. Alamar Blue solution was added at 10% of total sample volume, and plates were incubated at 37 °C for 1–4 h before absorbance was analyzed in a plate reader.[65] Alamar Blue has an excitation wavelength of 530–560 nm and an emission wavelength of 590 nm. Total % cell viability/cell survival was calculated by dividing the absorbance of the treated sample by the absorbance of control and multiplying it by 100.

SMILES	IC50 (Human ALDH1A3; mean ± SE) [µM]	IC50 (PC3) [µM]	IC50 (LNCaP) [µM]	IC50 (DU145) [µM]	cell viability of primary prostate epithelial cultures, combination with docetaxel [1]	cell viability of primary prostate epithelial cultures, single agent [1]	type of inhibition ALDH1A3 (Human ALDH1A3; hexanal as substrate)	Ki (Human ALDH1A3; hexanal as substrate, fit to competitive inhibition equation, mean ± SE) [µM]	fold difference in capacity to inhibit ALDH1A3, 14 vs 13 (Human ALDH1A3; ratio of IC50 values)
CCCN(CCC)c1ccc(C=O)cc1[N+](=O)[O-] [Compound 18, 4-(Dipropylamino)-3-Nitrobenzaldehyde]	106 ± 16	98 ± 12	31 ± 6	100 ± 13	more potent than DEAB	more potent than DEAB	–	–	–
CCCN(CCC)c1ccc(C=O)cc1Br [Compound 14, 3-Bromo-4-(dipropylamino)benzaldehyde]	0.63 ± 0.02	47 ± 6	25 ± 1	61 ± 5	more potent than DEAB	more potent than DEAB	competitive	0.46 ± 0.15	approximately 17 fold
